Experimental data from US10117899B2, “Delivery methods and compositions for nuclease-mediated genome engineering in hematopoietic stem cells” (Sangamo BioSciences, Inc., priority 2013, dated 2018).

How the values were obtained:
CD34+ cells = assay: Gene targeting of CD34+ cell subpopulations in culture supplemented with SR1 and/or dmPGE2; type: cell-based, human
Protocol: CD34+ cells were either freshly purified from human cord blood after obtaining informed consent and upon approval by the San Raffaele Hospital Bioethical Committee, or purchased frozen from Lonza. 10^6 CD34+ cells/ml were stimulated in serum-free StemSpan medium (StemCell Technologies) supplemented with penicillin, streptomycin and human early-acting cytokines (stem cell factor (SCF) 100 ng/ml, Flt3 ligand (Flt3-L) 100 ng/ml, thrombopoietin (TPO) 20 ng/ml, and interleukin 6 (IL-6) 20 ng/ml; all purchased from Peprotech) for 24 or 48 hr and then infected with IDLVs at multiplicity of infection (MOI) 100-500. The following day the cells were electroporated with 175 μg/ml ZFNs encoding mRNAs (P3 Primary Cell 4D-Nucleofector X Kit, program EO 100; Lonza). For some experiments, the following drugs were supplemented to the culture media: 1 μM SR1 (Novartis) added at every medium change, and 10 μM PGE2 (Cayman) added at the beginning of the culture, 1 hour before and just after electroporation. For CFC assays, 800 cells were plated one day after electroporation in methylcellulose-based medium (MethoCult H4434, StemCell Technologies). Two weeks after plating, colonies were counted and identified according to morphological criteria.
Because cell cycle progression is a major requirement of HDR, and activation of the more primitive progenitors may require longer stimulation, we postponed the gene targeting procedure to the third day of culture (FIG. 3C). At this time, the cells are also likely to become more permissive to LV transduction. However, since increasing times of culture lead to increased differentiation, we also tested addition of the Aryl Hydrocarbon Receptor Antagonist (StemRegenin 1, SR1) and/or 16.16 dimethyl-prostaglandin E2 (dmPGE2) to the culture medium to promote progenitor expansion in conditions that have been reported to preserve the stemness of these cells (FIG. 3D).

NSG mice = assay: Transplantation of gene targeted CD34+ cells in NSG mice, engraftment of human CD45+ and GFP+ cells; type: in vivo; details: for effect on in vivo differentiation of treated cells: addition to the in vitro culture, PB 14 weeks post-transplant; for fraction of mice successfully engrafted with GFP+ cells: delayed treatment and addition of SR1 and dmPGE2 used in combination
Description: For the in vivo studies, 8- to 11-week-old NOD-SCID-IL2Rg^−/− (NSG) mice were purchased from the Jackson laboratory. The experimental protocol was approved by the Institutional Animal Care and Use Committee of the San Raffaele Scientific Institute. At day 4 of culture, 3×10^5 gene targeted CD34+ cells (or 7.5×10^5 BM derived cells) were infused intravenously into the mice after sub-lethal irradiation (200 cGy).MDA3 human mammary carcinoma cell line was obtained by stable transduction of MDA-MB 231 cells with lentiviral vectors expressing the human cytokines GMCSF, IL-7 and IL-15 from the PGK promoter. 4×10^6MDA3 cells were implanted orthotopically in the mammary fat pad of NSG mice 14 weeks after CD34+ cells transplantation or in age-matched untransplanted NSG mice. Human CD45+ engraftment was followed by serial collections of blood from the mouse tail and, at the end of the experiment (12-23 weeks after transplantation), BM, spleen and thymus cells were harvested and analyzed. HumanT lymphocytes were enriched from mouse splenocytes using magnetic beads conjugated to anti human CD3 and CD28 antibodies (Dynabeads human T-activator CD3/CD28; Invitrogen), following the manufacturer instructions, and grown in Iscove's Modified Dulbecco's Media (IMDM) (GIBCO-BRL) supplemented with penicillin, streptomycin, 10% FBS and 5 ng/ml each of IL-7 and IL-15 (PeproTech).

[1] = 1 μM SR1 added to culture medium

| SMILES | effect on overall yield of GFP+ CFC and early (CD133+) progenitors (CD34+ cells; [1]) | effect on percentage of GFP+ cells within each subpopulation (CD34+ cells; [1]) | effect on targeting efficiency (CD34+ cells; SR1 treatment) | effect on the more primitive fractions in culture (CD34+ cells; SR1 treatment) | effect on in vivo differentiation of treated cells (NSG mice) | total human cell engraftment in the mice (NSG mice; after SR1 addition to the culture) | fraction of mice successfully engrafted with GFP+ cells (NSG mice) [%] | apoptotic rate of cells treated with or without dmPGE2 (CD34+ cells) | effect on percentage of GFP+ cells in all subpopulations (CD34+ cells; dmPGE2 added to culture, additive effects with SR1) |
| --- | --- | --- | --- | --- | --- | --- | --- | --- | --- |
| CC(C)n1cnc2c(NCCc3ccc(O)cc3)nc(-c3csc4ccccc34)nc21 [SR1, StemRegenin 1] | increased | slightly reduced | did not significantly influence | helped maintain the more primitive fractions in culture | did not significantly affect | significantly increased | 100 |  |  |
| CCCCC(C)(C)[C@H](O)/C=C/[C@H]1[C@H](O)CC(=O)[C@@H]1C/C=C\CCCC(=O)O [dmPGE2, 16.16 dimethyl-prostaglandin E2] |  |  |  |  | did not significantly affect |  | 100 | did not observe significant differences | further increased |
